Results as given in ChEMBL document CHEMBL3351760, “Homology modeling and explicit membrane molecular dynamics simulation to delineate the mode of binding of thiazolidinediones into FFAR1 and the mechanism of receptor activation” (Bioorg Med Chem Lett, 2014).

Biological target: Free fatty acid receptor 1 (Homo sapiens, UniProt O14842)
Assay: Agonist activity at FFAR1 (unknown origin) assessed as increase in ERK1/2 MAP kinase phosphorylation

Free fatty acid receptor 1, sequence (O14842 whole entry): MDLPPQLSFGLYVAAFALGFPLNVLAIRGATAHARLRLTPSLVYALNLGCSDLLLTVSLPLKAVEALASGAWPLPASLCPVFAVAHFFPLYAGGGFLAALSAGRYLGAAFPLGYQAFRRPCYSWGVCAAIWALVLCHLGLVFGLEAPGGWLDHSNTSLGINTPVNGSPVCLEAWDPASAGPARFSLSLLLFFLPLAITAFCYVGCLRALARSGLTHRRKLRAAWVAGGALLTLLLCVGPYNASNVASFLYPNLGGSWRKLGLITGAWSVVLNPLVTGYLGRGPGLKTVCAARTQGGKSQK

Row | EC50 | SMILES
1 | 0.316 µM | O=C(O)CCc1ccc(NCc2cccc(Oc3ccccc3)c2)cc1 [GW9508]
2 | 11.5 µM | CN(CCOc1ccc(CC2SC(=O)NC2=O)cc1)c1ccccn1 (stereo not drawn) [ROSIGLITAZONE]
3 | 813 µM | CCc1ccc(CCOc2ccc(CC3SC(=O)NC3=O)cc2)nc1 (stereo not drawn) [PIOGLITAZONE]
